Biological target: Voltage-gated inwardly rectifying potassium channel KCNH2 (Homo sapiens, UniProt Q12809)
Assay: Inhibitory concentration against potassium channel HERG

Voltage-gated inwardly rectifying potassium channel KCNH2, sequence (Q12809 whole entry): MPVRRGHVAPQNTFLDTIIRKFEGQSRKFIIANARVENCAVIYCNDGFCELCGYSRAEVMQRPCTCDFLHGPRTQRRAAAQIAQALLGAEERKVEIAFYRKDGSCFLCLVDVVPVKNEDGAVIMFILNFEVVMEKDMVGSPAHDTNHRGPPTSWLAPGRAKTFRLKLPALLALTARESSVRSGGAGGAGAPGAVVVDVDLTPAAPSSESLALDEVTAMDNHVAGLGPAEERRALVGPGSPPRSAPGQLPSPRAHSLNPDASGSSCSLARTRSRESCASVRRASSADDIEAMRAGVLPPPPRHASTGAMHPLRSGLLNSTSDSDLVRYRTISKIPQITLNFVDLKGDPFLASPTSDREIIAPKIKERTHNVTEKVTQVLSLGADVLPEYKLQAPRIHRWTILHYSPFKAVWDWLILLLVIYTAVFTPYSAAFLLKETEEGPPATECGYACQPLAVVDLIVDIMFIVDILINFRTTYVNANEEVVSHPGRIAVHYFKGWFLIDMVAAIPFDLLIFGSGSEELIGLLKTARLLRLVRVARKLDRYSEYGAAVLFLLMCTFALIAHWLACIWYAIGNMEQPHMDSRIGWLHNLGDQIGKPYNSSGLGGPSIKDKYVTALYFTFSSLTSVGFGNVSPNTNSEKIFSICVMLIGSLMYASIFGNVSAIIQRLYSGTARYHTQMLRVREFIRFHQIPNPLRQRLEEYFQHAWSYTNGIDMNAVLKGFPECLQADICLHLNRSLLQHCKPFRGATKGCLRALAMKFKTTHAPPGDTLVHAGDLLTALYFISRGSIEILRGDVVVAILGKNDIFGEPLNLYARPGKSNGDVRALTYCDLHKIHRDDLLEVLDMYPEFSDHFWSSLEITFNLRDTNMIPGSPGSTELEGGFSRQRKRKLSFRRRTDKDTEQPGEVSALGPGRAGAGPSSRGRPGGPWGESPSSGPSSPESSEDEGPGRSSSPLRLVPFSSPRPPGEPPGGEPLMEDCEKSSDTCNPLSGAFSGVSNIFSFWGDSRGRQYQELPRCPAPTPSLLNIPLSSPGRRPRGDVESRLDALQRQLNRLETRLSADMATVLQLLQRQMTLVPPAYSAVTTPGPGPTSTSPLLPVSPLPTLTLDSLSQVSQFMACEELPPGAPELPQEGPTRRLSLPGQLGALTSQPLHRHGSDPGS

| Structure (SMILES) | IC50 |
| --- | --- |
| COc1ccc2c3c1O[C@H]1[C@@H](O)C=C[C@H]4[C@@H](C2)N(C)CC[C@@]341 [CODEINE] | 302 µM |
| CC[C@H](OC(C)=O)C(C[C@H](C)N(C)C)(c1ccccc1)c1ccccc1 [LEVOMETHADYL ACETATE] | 2.19 µM |
| CCC(=O)C(CC(C)N(C)C)(c1ccccc1)c1ccccc1 (centres undefined) [METHADONE] | 9.77 µM |
| COc1cc2nc(N3CCN(C(=O)c4ccco4)CC3)nc(N)c2cc1OC [PRAZOSIN] | 1.58 µM |

Source: ChEMBL document CHEMBL1139598, “A discriminant model constructed by the support vector machine method for HERG potassium channel inhibitors” (Bioorg Med Chem Lett, 2005)
